{"source": "patent US7947668B2", "about": "“Aminoalkyl sterol compounds having an anti-tumoral and neuroprotective activity” (Institut National de la Sante et de la Recherche Medicale, priority 2002, dated 2011)", "molecules": {"B1": {"name": "IL-4: interleukin-4, cytokine (protein, UniProt P05112 25-153, looked up)", "Interleukin-4": "HKCDITLQEIIKTLNSLTEQKTLCTELTVTDIFAASKNTTEKETFCRAATVLRQFYSHHEKDTRCLGATAQQFHRHKQLIRFLKRLDRNLWGLAGLNSCPVKEANQSTLENFLERLKTIMREKYSKCSS"}}}
{"tested_on": "C57BL/6 mouse spleen monocytes", "test": "Dendritogenesis on C57BL/6 mouse spleen monocytes", "type": "cell-based", "conditions": "dose of 1 nM, 36 hours after the start of action", "experimental": "1) On C57BL/6 Mouse Spleen Monocytes\n5-week-old mice are sacrificed by cervical dislocation. They are then dissected. The spleens are removed under sterile conditions and then placed in a cold solution (4° C.) containing serum-free culture medium supplemented with antibiotics (streptomycin and penicillin). The spleens are ground in a sterile fume cupboard and then filtered through a 100 μm filter. The eluate is recovered and then centrifuged at 1000 rpm for 5 minutes at 4° C. The cell pellet is resuspended in phosphate-buffered saline (PBS) solution containing […], the purpose of which is to lyze the red blood cells. The suspension is centrifuged at 1000 rpm and the cells are then resuspended in PBS. The washing operation is performed twice. The final resuspension is performed in whole culture medium, and the cells are counted and distributed into six-well dishes at a density of 40 000 cells/ml. Four hours later, the adhering cells are washed vigorously with PBS in order to remove the cells that might remain attached to the adhering cells or to the culture dish.\nThe conversion was obtained with a dose of 1 nM, the photograph having been taken 36 hours after the start of action of the product. The test product is that of example 9. The appearance of cellular extensions is observed, which is one of the main characteristics of activated dendritic cells."}
{"molecule": "NCCc1c[nH]cn1", "note": "[amine, 2-(1H-imidazol-4-yl)ethylamine, reference compound]", "morphological changes on the mouse monocytes, conversion into dendritic cells": "ineffective"}
{"molecule": "CC(C)CCC[C@@H](C)[C@H]1CC[C@H]2[C@@H]3CC=C4C[C@@H](O)CC[C@]4(C)[C@H]3CC[C@]12C", "note": "[cholesterol, reference compound]", "morphological changes on the mouse monocytes, conversion into dendritic cells": "ineffective"}
{"molecule": "CC(C)CCC[C@@H](C)[C@H]1CC[C@H]2[C@@H]3C[C@@H]4O[C@@]45C[C@@H](O)CC[C@]5(C)[C@H]3CC[C@]12C", "note": "[epoxy-cholesterol derivative, 5,6-α-epoxycholestan-3β-ol, reference compound]", "morphological changes on the mouse monocytes, conversion into dendritic cells": "ineffective"}
{"molecule": "GM-CSF: cytokine used with IL-4 to differentiate monocytes into dendritic cells", "morphological changes on the mouse monocytes, conversion into dendritic cells": "ineffective"}
{"molecule": "B1", "morphological changes on the mouse monocytes, conversion into dendritic cells": "ineffective"}
{"tested_on": "PC12 cells", "test": "Neuritogenesis on PC12 cells", "type": "cell-based", "conditions": "dose of 10 nM, action time 36 hours", "experimental": "The PC12 cells were cultured at an initial density of 1.5×10^5 cells/ml in RPMI 1640 medium supplemented with 10% fetal calf serum and 5% horse serum. The base of the culture dishes is treated with a 0.1 wt % polylysine or collagen solution in order to cause adhesion of the cells. The supernatant cells are removed after 12 hours and then treated with or without nerve growth factor (NGF) at 10 ng/ml, with or without the compound of example 6 or of example 7. The cells are observed by phase-contrast microscopy.\nThe PC12 cells treated by means of the compound of example 6 were treated at a dose of 10 nM, the action time of the compound being 36 hours."}
{"molecule": "CC(C)CCC[C@@H](C)[C@H]1CC[C@H]2C3=C[C@@H](NCCCCNCCCN)[C@@]4(O)C[C@@H](O)CC[C@]4(C)[C@H]3CC[C@]12C", "note": "[Example 6, cholest-7-ene-3β,5α-diol-6β-N-[1-N-1-(3-aminopropyl)butane-1,4-diamine]]", "change in morphology of PC12 cells toward dendrites": "formation of dendrites"}
{"tested_on": "U-937 cells", "test": "Production of IL-12p70 and IL-10 by the dendritic cells (ELISA)", "type": "cell-based, human", "conditions": "treatments extending over a period of two weeks", "experimental": "The culture supernatants are frozen at a temperature of −80° C. until the time of testing for the presence of cytokines. The presence of IL-12p70 and IL-10 is measured using ELISA kits obtained from “Endogen” (Woburn, Mass., USA).\nThis phenomenon continues for the two weeks of treatment."}
{"molecule": "campestane-3β,5α-diol-6β-N-{[2-(1H-imidazol-4-yl)ethyl]ethylamine} [Example 47]", "transcription/production of IL-10": "same observations"}
{"molecule": "sitostane-3β,5α-diol-6β-N-{[2-(1H-imidazol-4-yl)ethyl]ethylamine} [Example 46]", "transcription/production of IL-10": "same observations"}
{"tested_on": "P19 cells", "test": "Neuritogenesis on mouse P19 cells", "type": "cell-based", "conditions": "dose of 10 nM; after 12 hours of treatment", "experimental": "The P19 cells are derived from a mouse embryonic carcinoma. They are pluripotent cells, which can change into neurones or into glial cells by treatment with retinoic acid (J. Cell. Biol. 1982 August, 94 (2): pp. 253-262) and can differentiate into muscle cells in the presence of dimethyl sulfoxide (Nature 1982-9 September, 299(58 79): pp. 165-167).\nThe P19 cells are cultured in the presence of an “RPMI 1640” culture medium sold by the company “Gibco BRL”, this medium being supplemented with 2 mM of glutamine and 4% by weight of fetal calf serum. They are inoculated at low density (10 000 cells per 60-mm well). The P19 cells are treated with the compound of example 6; they are then observed by phase-contrast microscopy. […]"}
{"molecule": "CC(C)CCC[C@@H](C)[C@H]1CC[C@H]2[C@@H]3C[C@@H](NCCCCNCCCN)[C@@]4(O)C[C@@H](O)CC[C@]4(C)[C@H]3CC[C@]12C", "note": "[Example 4, cholestane-3β,5α-diol-6β-N-[1-N1-(3-aminopropyl)butane-1,4-diamine]]", "change in morphology of P19 cells toward dendrites": "same observations"}
{"molecule": "CC(C)CCC[C@@H](C)[C@H]1CC[C@H]2[C@@H]3C[C@@H](NCCCNCCCCNCCCN)[C@@]4(O)C[C@@H](O)CC[C@]4(C)[C@H]3CC[C@]12C", "note": "[Example 5, cholestane-3β,5α-diol-6β-N-[N,N′-bis(3-aminopropyl)butane-1,4-diamine]]", "change in morphology of P19 cells toward dendrites": "same observations"}
{"molecule": "CC(C)CCC[C@@H](C)[C@H]1CC[C@H]2C3=C[C@@H](NCCCCNCCCN)[C@@]4(O)C[C@@H](O)CC[C@]4(C)[C@H]3CC[C@]12C", "note": "[Example 6, cholest-7-ene-3β,5α-diol-6β-N-[1-N-1-(3-aminopropyl)butane-1,4-diamine]]", "change in morphology of P19 cells toward dendrites": "formation of dendrites"}
{"molecule": "CC(C)CCC[C@@H](C)[C@H]1CC[C@H]2C3=C[C@@H](NCCCNCCCCNCCCN)[C@@]4(O)C[C@@H](O)CC[C@]4(C)[C@H]3CC[C@]12C", "note": "[Example 7, cholest-7-ene-3β,5α-diol-6β-N-[N,N′-bis(3-aminopropyl)butane-1,4-diamine]]", "change in morphology of P19 cells toward dendrites": "same observations"}
{"molecule": "CC[C@H](CC[C@@H](C)[C@H]1CC[C@H]2[C@@H]3C[C@@H](NCCCNCCCCNCCCN)[C@@]4(O)C[C@@H](O)CC[C@]4(C)[C@H]3CC[C@]12C)C(C)C", "note": "[Example 42, sitostane-3β,5α-diol-6β-N-[N,N′-bis(aminopropyl)butane-1,4-diamine]]", "change in morphology of P19 cells toward dendrites": "same observations"}
{"molecule": "CC(C)[C@H](C)CC[C@@H](C)[C@H]1CC[C@H]2[C@@H]3C[C@@H](NCCCNCCCCNCCCN)[C@@]4(O)C[C@@H](O)CC[C@]4(C)[C@H]3CC[C@]12C", "note": "[Example 43, campestane-3β,5α-diol-6β-N-[N,N′-bis(aminopropyl)butane-1,4-diamine]]", "change in morphology of P19 cells toward dendrites": "same observations"}
{"molecule": "CC[C@H](CC[C@@H](C)[C@H]1CC[C@H]2[C@@H]3C[C@@H](NCCCCNCCCN)[C@@]4(O)C[C@@H](O)CC[C@]4(C)[C@H]3CC[C@]12C)C(C)C", "note": "[Example 44, sitostane-3β,5α-diol-6β-N-[1-N1-(3-aminopropyl)butane-1,4-diamine]]", "change in morphology of P19 cells toward dendrites": "same observations"}
{"molecule": "CC(C)[C@H](C)CC[C@@H](C)[C@H]1CC[C@H]2[C@@H]3C[C@@H](NCCCCNCCCN)[C@@]4(O)C[C@@H](O)CC[C@]4(C)[C@H]3CC[C@]12C", "note": "[Example 45, campestane-3β,5α-diol-6β-N-[1-N-1-(3-aminopropyl)butane-1,4-diamine]]", "change in morphology of P19 cells toward dendrites": "same observations"}
